Patent publication US10875851B2, “Factor XIIa inhibitors” (Merck Sharp & Dohme Corp., priority 2016, dated 2020)

The compounds below were run against human Factor XIIa (Homo sapiens (Human), UniProt P00748) (assay: Factor XIIa Assay). Conditions: purified human Factor XIIa 500 pM; substrate n-Acetyl-Lys-Pro-Arg-AFC 100 μM; pH 7.4; read-out: FXIIa IC50.
Format: biochemical
Description: The effectiveness of a compound of the present invention as an inhibitor of Coagulation Factor XIIa can be determined using a relevant purified serine protease, and an appropriate synthetic substrate. The rate of hydrolysis of the chromogenic or fluorogenic substrate by the relevant serine protease was measured both in the absence and presence of compounds of the present invention. Assays were conducted at room temperature or at 37° C. […] A decrease in the rate of fluorescence change in the presence of inhibitor is indicative of enzyme inhibition. Such methods are known to one skilled in the art.
Factor XIIa activity determinations were made in 50 mM HEPES buffer containing 150 mM NaCl, 5 mM CaCl2, and 0.1% PEG 8000 (polyethylene glycol; JT Baker or Fisher Scientific) at pH 7.4. Determinations were made using purified human Factor XIIa at a final concentration of 500 pM (Sekisui Diagnostics) and the synthetic substrate, n-Acetyl-Lys-Pro-Arg-AFC, TFA salt (Sigma #C6608) at a concentration of 100 μM.
Times required to achieve equilibration between enzyme and inhibitor were determined in control experiments. Initial velocities of product formation in the absence (Vo) or presence of inhibitor (Vi) were measured. IC50 was determined as the concentration of I yielding Vi=Vo/2.

Sequence of human Factor XIIa (P00748 373-615): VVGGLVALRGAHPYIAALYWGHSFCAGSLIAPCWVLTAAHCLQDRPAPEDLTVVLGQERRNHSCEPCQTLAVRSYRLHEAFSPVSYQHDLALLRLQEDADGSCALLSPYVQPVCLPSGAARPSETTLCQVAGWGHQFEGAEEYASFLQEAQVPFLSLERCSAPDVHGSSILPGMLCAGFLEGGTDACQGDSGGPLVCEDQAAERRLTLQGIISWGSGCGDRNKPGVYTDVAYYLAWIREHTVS

Row | Compound | IC50
1 | Cc1ccc(OC(=O)N2CCN(C(=O)[C@H](N)CCCCN(C)C)[C@H](C(=O)NCc3cccs3)C2)c(Cl)c1C [Example 98, 2-chloro-3,4-dimethylphenyl (3S)-4-(N^6,N^6-dimethyl-D-lysyl)-3-[(thiophen-2-ylmethyl)carbamoyl]piperazine-1-carboxylate] | 7.2 nM
2 | CN(C)CCCC[C@@H](NC1CCCCC1)C(=O)N1CCN(C(=O)CC2CCCC2)C[C@H]1C(=O)NCc1cccs1 [Example 99, (2S)-1-(N^2-cyclohexyl-N^6,N^6-dimethyl-D-lysyl)-4-(cyclopentylacetyl)-N-(thiophen-2-ylmethyl)piperazine-2-carboxamide] | 29.7 nM
3 | Cc1ccc(OC(=O)N2CCN(C(=O)[C@@H](CCCCN(C)C)N(C)C3CCC4(CC3)CCN(Cc3ccccc3)C4)[C@H](C(=O)NCc3cccs3)C2)c(Cl)c1C (stereo partly drawn) [Example 100, 2-chloro-3,4-dimethylphenyl (3S)-4-[N^2-(2-benzyl-2-azaspiro[4.5]dec-8-yl)-N^2,N^6,N^6-trimethyl-D-lysyl]-3-[(thiophen-2-ylmethyl)carbamoyl]piperazine-1-carboxylate] | 0.5 nM
4 | Cc1ccc(OC(=O)N2CCN(C(=O)[C@@H](CCCCN(C)C)N(C)C3CCCCC3)[C@H](C(=O)NCc3cccs3)C2)c(Cl)c1C [Example 101, 2-chloro-3,4-dimethylphenyl (3S)-4-(N^2-cyclohexyl-N^2,N^6,N^6-trimethyl-D-lysyl)-3-[(thiophen-2-ylmethyl)carbamoyl]piperazine-1-carboxylate] | 0.1 nM
5 | Cc1ccc(OC(=O)N2CCN(C(=O)[C@@H](CCCCNC(C)C)NC3CCCCC3)[C@H](C(=O)NCc3cccs3)C2)c(Cl)c1C [Example 102, 2-chloro-3,4-dimethylphenyl (3S)-4-[N^2-cyclohexyl-N^6-(1-methylethyl)-D-lysyl]-3-[(thiophen-2-ylmethyl)carbamoyl]piperazine-1-carboxylate] | 0.7 nM
6 | Cc1ccc(OC(=O)N2CCN(C(=O)[C@@H](CCCCNC(C)C)NC(C)C)[C@H](C(=O)NCc3cccs3)C2)c(Cl)c1C [Example 103, 2-chloro-3,4-dimethylphenyl (3S)-4-[N^2,N^6-bis(1-methylethyl)-D-lysyl]-3-[(thiophen-2-ylmethyl)carbamoyl]piperazine-1-carboxylate] | 1.4 nM
7 | Cc1ccc(OC(=O)N2CCN(C(=O)[C@@H](CCCCN3CCCCC3)NC3CCC4(CC3)CCN(Cc3ccccc3)C4)[C@H](C(=O)NCc3cccs3)C2)c(Cl)c1C (stereo partly drawn) [Example 104, 2-chloro-3,4-dimethylphenyl (3S)-4-[N-(2-benzyl-2-azaspiro[4.5]dec-8-yl)-6-piperidin-1-yl-D-norleucyl]-3-[(thiophen-2-ylmethyl)carbamoyl]piperazine-1-carboxylate] | 0.2 nM
8 | Cc1ccc(OC(=O)N2CCN(C(=O)[C@@H](CCCCNC(C)C)NC3CCC4(CC3)CCN(Cc3ccccc3)C4)[C@H](C(=O)NCc3cccs3)C2)c(Cl)c1C (stereo partly drawn) [Example 105, 2-chloro-3,4-dimethylphenyl (3S)-4-[N^2-(2-benzyl-2-azaspiro[4.5]dec-8-yl)-N^6-(1-methylethyl)-D-lysyl]-3-[(thiophen-2-ylmethyl)carbamoyl]piperazine-1-carboxylate] | 0.5 nM
9 | CC[C@@H](NC1CCCCC1)C(=O)N1CCN(C(=O)Oc2ccc(C)c(C)c2Cl)C[C@H]1C(=O)NCc1ccc(CN)c(OC)c1 [Example 106, 2-chloro-3,4-dimethylphenyl (3S)-3-{[4-(aminomethyl)-3-methoxybenzyl]carbamoyl}-4-[(2R)-2-(cyclohexylamino)butanoyl]piperazine-1-carboxylate] | 6.2 nM
10 | CC[C@@H](NC1CCC2(CC1)CCN(Cc1ccccc1)C2)C(=O)N1CCN(C(=O)Oc2ccc(C)c(C)c2Cl)C[C@H]1C(=O)NCc1ccc(CN)c(OC)c1 (stereo partly drawn) [Example 107, 2-chloro-3,4-dimethylphenyl (3S)-3-{[4-(aminomethyl)-3-methoxybenzyl]carbamoyl}-4-{(2R)-2-[(2-benzyl-2-azaspiro[4.5]dec-8-yl)amino]butanoyl}piperazine-1-carboxylate] | 14 nM
11 | Cc1ccc(OC(=O)N2CCN(C(=O)[C@@H](CCCCN(C)C)NC3CCC4(CC3)CCN(Cc3ccccc3)C4)[C@H](C(=O)NCc3cccs3)C2)c(Cl)c1C (stereo partly drawn) [Example 108, 2-chloro-3,4-dimethylphenyl (3S)-4-[N^2-(2-benzyl-2-azaspiro[4.5]dec-8-yl)-N^6,N^6-dimethyl-D-lysyl]-3-[(thiophen-2-ylmethyl)carbamoyl]piperazine-1-carboxylate] | 0.3 nM
12 | Cc1ccc(OC(=O)N2CCN(C(=O)[C@@H](CCCCN3CCCC3)NC3CCC4(CC3)CCN(Cc3ccccc3)C4)[C@H](C(=O)NCc3cccs3)C2)c(Cl)c1C (stereo partly drawn) [Example 109, 2-chloro-3,4-dimethylphenyl (3S)-4-[N-(2-benzyl-2-azaspiro[4.5]dec-8-yl)-6-pyrrolidin-1-yl-D-norleucyl]-3-[(thiophen-2-ylmethyl)carbamoyl]piperazine-1-carboxylate] | 1 nM
13 | Cc1ccc(OC(=O)N2CCN(C(=O)[C@@H](CCCCN3CCCC3C)NC3CCC4(CC3)CCN(Cc3ccccc3)C4)[C@H](C(=O)NCc3cccs3)C2)c(Cl)c1C (stereo partly drawn) [Example 110, 2-chloro-3,4-dimethylphenyl (3S)-4-[N-(2-benzyl-2-azaspiro[4.5]dec-8-yl)-6-(2-methylpyrrolidin-1-yl)-D-norleucyl]-3-[(thiophen-2-ylmethyl)carbamoyl]piperazine-1-carboxylate] | 0.3 nM
14 | Cc1ccc(OC(=O)N2CCN(C(=O)[C@H](N)CCCCN3CCCCC3)[C@H](C(=O)NCc3cccs3)C2)c(Cl)c1C [Example 111, 2-chloro-3,4-dimethylphenyl (3S)-4-(6-piperidin-1-yl-D-norleucyl)-3-[(thiophen-2-ylmethyl)carbamoyl]piperazine-1-carboxylate] | 5 nM
15 | CS(=O)(=O)NCCCC[C@@H](NC1CCCC1)C(=O)N1CCN(C(=O)Oc2ccc3ccccc3c2Cl)C[C@H]1C(=O)NCc1cccs1 [Example 113, 1-chloronaphthalen-2-yl (3S)-4-[N^2-cyclopentyl-N~6~-(methylsulfonyl)-D-lysyl]-3-[(thiophen-2-ylmethyl)carbamoyl]piperazine-1-carboxylate] | 8.4 nM
16 | C[C@H]1N=C(N2CCN(C(=O)[C@@H](CC3CCCCC3)NC3CCCCC3)[C@H](C(=O)NCc3cccs3)C2)O[C@H]1c1ccccc1 [Example 114, (2S)-1-(N,3-dicyclohexyl-D-alanyl)-4-[(4R,5S)-4-methyl-5-phenyl-4,5-dihydro-1,3-oxazol-2-yl]-N-(thiophen-2-ylmethyl)piperazine-2-carboxamide] | 17.1 nM
17 | CC(C)N[C@H](CCCCN1CCCCC1)C(=O)N1CCN(C2=N[C@@H](C)[C@H](c3ccccc3)O2)C[C@H]1C(=O)NCc1cccs1 [Example 115, (2S)-1-[N-(1-methylethyl)-6-piperidin-1-yl-D-norleucyl]-4-[(4S,5S)-4-methyl-5-phenyl-4,5-dihydro-1,3-oxazol-2-yl]-N-(thiophen-2-ylmethyl)piperazine-2-carboxamide] | 3.8 nM
18 | C[C@@H]1N=C(N2CCN(C(=O)[C@@H](CCCCNS(C)(=O)=O)NC3CCCCC3)[C@H](C(=O)NCc3cccs3)C2)O[C@H]1c1cccc(C#N)c1 [Example 116, (2S)-4-[(4S,5S)-5-(3-cyanophenyl)-4-methyl-4,5-dihydro-1,3-oxazol-2-yl]-1-[N^2-cyclohexyl-N^6-(methylsulfonyl)-D-lysyl]-N-(thiophen-2-ylmethyl)piperazine-2-carboxamide] | 17.8 nM
19 | C[C@@H]1N=C(N2CCN(C(=O)[C@@H](CCCCNS(C)(=O)=O)NC3CCCCC3)[C@H](C(=O)NCc3cccs3)C2)O[C@H]1c1cccc(CN)c1 [Example 117, (2S)-4-{(4S,5S)-5-[3-(aminomethyl)phenyl]-4-methyl-4,5-dihydro-1,3-oxazol-2-yl}-1-[N^2-cyclohexyl-N^6-(methylsulfonyl)-D-lysyl]-N-(thiophen-2-ylmethyl)piperazine-2-carboxamide] | 5.2 nM
20 | COc1cc(CNC(=O)[C@@H]2CN(C3=N[C@@H](C)[C@H](c4ccccc4)O3)CCN2C(=O)[C@@H](CCCCN2CCCCC2)NC(C)C)ccc1CN [Example 118, (2S)-N-[4-(aminomethyl)-3-methoxybenzyl]-1-[N-(1-methylethyl)-6-piperidin-1-yl-D-norleucyl]-4-[(4S,5S)-4-methyl-5-phenyl-4,5-dihydro-1,3-oxazol-2-yl]piperazine-2-carboxamide] | 8.1 nM
21 | C[C@@H]1N=C(N2CCN(C(=O)[C@H](NC3CCC(C(N)=O)CC3)[C@H]3CC[C@H](N4CCCCC4)CC3)[C@H](C(=O)NCc3cccs3)C2)O[C@H]1c1ccccc1 (stereo partly drawn) [Example 119, (2S)-1-[(2R)-2-[(4-carbamoylcyclohexyl)amino]-2-(trans-4-piperidin-1-ylcyclohexyl)acetyl]-4-[(4S,5S)-4-methyl-5-phenyl-4,5-dihydro-1,3-oxazol-2-yl]-N-(thiophen-2-ylmethyl)piperazine-2-carboxamide] | 1.5 nM
22 | C[C@H]1N=C(N2CCN(C(=O)[C@@H](CCCCNS(C)(=O)=O)NC3CCCCC3)[C@H](C(=O)NCc3cccs3)C2)O[C@H]1c1ccccc1 [Example 122, (2S)-1-[N^2-cyclohexyl-N^6-(methylsulfonyl)-D-lysyl]-4-[(4R,5S)-4-methyl-5-phenyl-4,5-dihydro-1,3-oxazol-2-yl]-N-(thiophen-2-ylmethyl)piperazine-2-carboxamide] | 13.5 nM
